Laboratory results taken from patent US20090181910A1, “METHOD OF PREVENTION AND ALLEVIATION OF TOXICITY BY MODULATION OF IRF3” (priority 2006, published 2009).

Key:
[1] = mouse, in vivo
Cyp3A11 = details: mouse, in vivo
RXRα promoter region = experiment: ChIP of Hes1 and HDAC1 in BMMs; format: cell-based, Murine; details: polyI:C 1 μg/ml 1, 3 and 6 hours; FIG. 9e,f
Procedure: FIG. 9: PolyI:C transcriptionally represses RXRα through recruitment of transcriptional repression machinery. a, BMMs were stimulated with media or polyI:C (1 μg/ml) for 2 hrs, followed by actinomycin D (ActD) (5 μg/ml) for 0, 15, 30, 60, 120 min. BMMs were stimulated with polyI:C (1 μg/ml) for 4 hrs or 8 hrs. RNA was analyzed by Q-PCR. b, Diagram of RXRα promoter based on promoter analysis software (MatInspector). BMMs were stimulated with LPS (10 ng/ml) or polyI:C (1 μg/ml) for 4 hrs. RNA was analyzed by Q-PCR. Wildtype, IRF3^−/− and IFNAR^−/− BMMs were stimulated with polyI:C (1 μg/ml) for 4 hrs. RNA was analyzed by Q-PCR. c, pCMV-RAW 264.7 cells (MT) or pCMV-Hes1-RAW 264.7 cells (Hes1) RNA was analyzed by Q-PCR. d, RAW264.7 cells transfected with siNS or siHes1 duplex oligos were stimulated with polyI:C (1 μg/ml) for 8 hours. RNA was analyzed by Q-PCR. e, f, BMMs were stimulated with polyI:C (1 μg/ml) for 1, 3 and 6 hours. Following stimulation, chromatin immunoprecipitation (ChIP) was performed with anti-Hes1 or anti-HDAC1 antibodies on sonicated samples, washed thoroughly and analyzed by PCR/agarose gel electrophoresis. PCR products on gel are quantified by ImageJ, normalized to Input. g, BMMs were pre-treated with Trichostatin A (TSA) (50 ng/ml) overnight and then stimulated with polyI:C (1 μg/ml) for 4 and 8 hrs. RNA was analyzed by Q-PCR. […]

polyinosinic:polycytidylic acid [polyI:C]
LCA-mediated serum ALT increase and liver damage [1]: failed to promote LCA-mediated increases of serum ALT levels or enhance liver damage
serum ALT levels, agent alone [1]: did not significantly increase serum ALT levels
effect on ASA or PCN induction of CYP3A11 mRNA (Cyp3A11): diminished
effect on induction of CYP3A11 by PCN (Cyp3A11): blunted the induction of CYP3A11 by PCN
recruitment of Hes1 and HDAC1 (ChIP) (RXRα promoter region): promotes specific recruitment of Hes1 and HDAC1 to the RXRα promoter region
